# Source: patent US4234586A, “Nitrogen bridgehead compounds having anti-allergic effect” (Chinoin Gyogyszer es Vegyeszeti Termekek Gyara Rt., priority 1977, dated 1980)
# Columns and labels:
# rats [1] = test: PCA test (antiallergic effect, rats); format: in vivo, rat; conditions: for inhibition in vivo at 320 µM, 320 µmol/kg / ED50: Rattus norvegicus; for inhibition in vivo at 320 µM, 320 µmol/kg: single dose of 320 μM/kg, route not given, read-out: PCA test, percentage of activity for a single dose of 320 μM/kg
# Procedure: (§1) The PCA text [Ovary: J. Immun. 81, 355 (1958)] and the Church test [British J. Pharm. 46, 56-66 (1972); Immunology 29, 527-534 (1975)] were used. The tests were carried out on rats.
# Released Hist. = Released Hist. in vitro; format: cell-based; conditions: Rattus norvegicus
# Procedure: as §1
# rats [2] = test: Church test (antiallergic effect, rats); format: in vivo; conditions: Rattus norvegicus, iv
# Procedure: as §1
# asthma = conditions: desired effect only by inhalation (spinhaler); cited from earlier work
# [3] = iv, read-out: ED50 in the PCA test, further compounds
# [4] = iv, rats, i.v., read-out: PCA test ED50 i.v.
# [5] = po, rats, p.o., read-out: PCA test ED50 p.o.
# [6] = iv, rats, i.v., second part of Table 1, read-out: PCA test ED50 i.v.
structure (smiles),measurement,setting,value
"CC1CCC(=NNc2cccc([N+](=O)[O-])c2)c2ncc(C(=O)O)c(=O)n21 (centres unmarked) [Example 43, 9-(3-nitro-phenyl)-hydrazono-6-methyl-4-oxo-6,7,8,9-tetrahydro-4H-pyrido(1,2-a)pyrimidine-3-carboxylic acid]","inhibition in vivo at 320 µM, 320 µmol/kg",rats [1]; rats,100%
same,EC50,Released Hist.; third part of Table 1,100 µM
"CCOc1ccc(NN=C2CCC(C)n3c2ncc(C(=O)O)c3=O)cc1 (centres unmarked) [Example 35, 9-(p-ethoxy-phenyl-hydrazono)-6-methyl-4-oxo-6,7,8,9-tetrahydro-4H-pyrido(1,2-a)pyrimidine-3-carboxylic acid]",ED50,rats [1]; [3],1 µmol/kg
same,"inhibition in vivo at 320 µM, 320 µmol/kg",rats [1]; rats,100%
same,EC50,Released Hist.; third part of Table 1,17.6 µM
"CC1CCC(=NNc2ccccc2)c2ncc(C(=O)O)c(=O)n21 (single isomer, unassigned; (+)) [Example 37, (+)-9-(phenyl-hydrazono)-6-methyl-4-oxo-6,7,8,9-tetrahydro-4H-pyrido(1,2-a)pyrimidine-3-carboxylic acid]",ED50,rats [1]; [4],0.29 µmol/kg
same,ED50,rats [1]; [5],1 µmol/kg
same,ED50,rats [2],0.14 µmol/kg
"CC1CCC(=NNc2ccc(Cl)c(Cl)c2)c2ncc(C(=O)O)c(=O)n21 (centres unmarked) [Example 41, 9-(3,4-dichloro-phenyl-hydrazono)-6-methyl-4-oxo-6,7,8,9-tetrahydro-4H-pyrido-(1,2-a)pyrimidine-3-carboxylic acid]","inhibition in vivo at 320 µM, 320 µmol/kg",rats [1]; rats,100%
same,EC50,Released Hist.; third part of Table 1,100 µM
"CC1CCC(=NNc2ccc(Cl)cc2)c2ncc(C(=O)O)c(=O)n21 (centres unmarked) [Example 18, 9-(p-chloro-phenyl-hydrazono)-6-methyl-4-oxo-6,7,8,9-tetrahydro-4H-pyrido(1,2-a)pyrimidine-3-carboxylic acid]",ED50,rats [1]; [6],0.53 µmol/kg
same,ED50,rats [1]; [3],0.53 µmol/kg
same,EC50,Released Hist.; second part of Table 1,100 µM
"CC1CCC(=NN)c2ncc(C(=O)O)c(=O)n21 (centres unmarked) [Example 26, 9-hydrazono-6-methyl-4-oxo-6,7,8,9-tetrahydro-4H-pyrido(1,2-a)pyrimidine-3-carboxylic acid]","inhibition in vivo at 320 µM, 320 µmol/kg",rats [1]; rats,89%
same,EC50,Released Hist.; third part of Table 1,90 µM
"CC1CCC(=NNc2ccc(Br)cc2)c2ncc(C(=O)O)c(=O)n21 (centres unmarked) [Example 16, 9-(p-bromo-phenyl-hydrazono)-6-methyl-4-oxo-6,7,8,9-tetrahydro-4H-pyrido(1,2-a)pyrimidine-3-carboxylic acid]","inhibition in vivo at 320 µM, 320 µmol/kg",rats [1]; rats,100%
same,EC50,Released Hist.; third part of Table 1,2 µM
"O=C(O)c1cc(=O)c2c(OCC(O)COc3cccc4oc(C(=O)O)cc(=O)c34)cccc2o1 [Disodium-chromoglycate, reference compound]",ED50,rats [1]; [4],1 µmol/kg
same,activity by route of administration (in words),rats [1]; oral vs intravenous,effective only when administered intravenously
same,PCA test ED50 p.o. (result in words),"rats [1]; rats, p.o.",ineffective
same,ED50,rats [2],0.84 µmol/kg
same,anti-asthmatic effect when administered orally,asthma,ineffective when administered orally
"CC1CCC(=NNc2ccccc2)c2ncc(C(=O)O)c(=O)n21 (centres unmarked) [Example 14, 9-(phenyl-hydrazono)-6-methyl-4-oxo-6,7,8,9-tetrahydro-4H-pyrido(1,2-a)pyrimidine-3-carboxylic acid]",ED50,rats [1]; [4],0.6 µmol/kg
same,ED50,rats [1]; [5],1.2 µmol/kg
same,ED50,rats [2],0.31 µmol/kg
"CC1CCC(=NNc2ccc(C(=O)O)cc2)c2ncc(C(=O)O)c(=O)n21 (centres unmarked) [Example 48, 9-(4-carboxy-phenyl-hydrazono)-6-methyl-4-oxo-6,7,8,9-tetrahydro-4H-pyrido(1,2-a)pyrimidine-3-carboxylic acid]","inhibition in vivo at 320 µM, 320 µmol/kg",rats [1]; rats,100%
same,EC50,Released Hist.; third part of Table 1,100 µM
"CC1CCC(=NNc2ccccc2C(=O)O)c2ncc(C(=O)O)c(=O)n21 (centres unmarked) [Example 17, 9-(o-carboxy-phenyl-hydrazono)-6-methyl-4-oxo-6,7,8,9-tetrahydro-4H-pyrido(1,2-a)pyrimidine-3-carboxylic acid]",ED50,rats [1]; [3],0.48 µmol/kg
"CC1CCC(=NNc2cccnc2)c2ncc(C(=O)O)c(=O)n21 (centres unmarked) [Example 23, 6-methyl-9-(3-pyridyl-hydrazono)-4-oxo-6,7,8,9-tetrahydro-4H-pyrido(1,2-a)pyrimidine-3-carboxylic acid]",ED50,rats [1]; [6],0.53 µmol/kg
same,ED50,rats [1]; [3],0.54 µmol/kg
same,EC50,Released Hist.; second part of Table 1,120 µM
"Cc1cccc(NN=C2CCC(C)n3c2ncc(C(=O)O)c3=O)c1 (centres unmarked) [Example 50, 9-(3-methyl-phenyl-hydrazono)-6-methyl-4-oxo-6,7,8,9-tetrahydro-4H-pyrido(1,2-a)pyrimidine-3-carboxylic acid]","inhibition in vivo at 320 µM, 320 µmol/kg",rats [1]; rats,100%
same,EC50,Released Hist.; third part of Table 1,73 µM
"CC1CCC(=NNc2cccc(Cl)c2)c2ncc(C(=O)O)c(=O)n21 (centres unmarked) [Example 45, 9-(3-chloro-phenyl-hydrazono)-6-methyl-4-oxo-6,7,8,9-tetrahydro-4H-pyrido(1,2-a)pyrimidine-3-carboxylic acid]","inhibition in vivo at 320 µM, 320 µmol/kg",rats [1]; rats,100%
same,EC50,Released Hist.; third part of Table 1,312 µM
